According to US10966426B2, “Herbicidal compositions comprising phenylpyrimidines” (BASF SE, priority 2016, dated 2021):

Columns and labels:
Type in all cases: in vivo
Poa annua = experiment: greenhouse post-emergence treatment, POAAN; details: Poa annua, 480 h, 20 DAT, flufenacet solo 31.25 gai/ha
Method in brief: (§1)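 Post-emergence greenhouse spray on 3–15 cm plants, sown direct or transplanted a few days before treatment. Scored visually on a 0–100 scale after 2 to 4 weeks; expected additive effect computed by Colby: E=X+Y−(X·Y/100).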

Ambrosia elatior [1] = experiment: greenhouse pre-emergence treatment, AMBEL; details: Ambrosia artemisiifolia, 480 h, 20 DAT, AMBEL
Method in brief: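 Damage rated on 0 to 100 scale (0 = normal growth, 100 = no emergence or total above-ground kill) after 2-4 weeks at species-dependent 10-25° C or 20-35° C. Seeds sown per species in loamy sand, ~3.0% humus, treated right after sowing with aqueous spray of single actives or 10% emulsion-concentrate mixtures, then hooded; additive expectation by Colby.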

Avena fatua = experiment: greenhouse post-emergence treatment, AVEFA; details: Avena fatua, 480 h, 20 DAT
Method in brief: (§2)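 Greenhouse test in humus-containing (~3.0%) loamy sand at species-dependent temperatures of 10-25° C. or 20-35° C.; treatments applied in water. Damage rated visually after 2–4 weeks (0 = none, 100 = complete destruction or no emergence).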

Polygonum convolvulus = experiment: greenhouse post-emergence treatment, POLCO; details: Fallopia convolvulus, 480 h, 20 DAT; for inhibition at 500000 µg/mL (stock): sc, POLCO
Method in brief: (§3)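 Foliar application to greenhouse-grown plants 3–15 cm tall in humus-containing loamy sand; response assessed on a 0–100 scale after 2–4 weeks, with Colby's E=X+Y−(X·Y/100) as the additive expectation.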

Brachiaria decumbens = experiment: greenhouse post-emergence treatment, BRADC; details: Urochloa decumbens, 480 h, 20 DAT; for inhibition at 500000 µg/mL (stock): sc, BRADC
Method in brief: as §1

Setaria viridis = experiment: greenhouse post-emergence treatment, SETVI; details: Setaria viridis, 480 h, 20 DAT; for inhibition at 500000 µg/mL (stock): sc, SETVI
Method in brief: as §2

Ambrosia elatior [2] = experiment: greenhouse post-emergence treatment, AMBEL; details: Ambrosia artemisiifolia, 480 h, 20 DAT
Method in brief: as §1

Bromus sterilis = experiment: greenhouse post-emergence treatment, BROST; details: Bromus sterilis, 480 h, 20 DAT; for inhibition at 500000 µg/mL (stock): sc, BROST
Method in brief: as §2

Lolium multiflorum = experiment: greenhouse post-emergence treatment, LOLMU; details: Lolium multiflorum, 480 h, 20 DAT, read-out: % activity
Method in brief: as §2

Papaver rhoeas = experiment: greenhouse post-emergence treatment, PAPRH; details: Papaver rhoeas, 480 h, PAPRH, 20 DAT, solo flufenacet (SC 500 g/l) 250 gai/ha
Method in brief: as §3

Matricaria chamomilla = experiment: greenhouse post-emergence treatment, MATCH; details: Matricaria chamomilla, sc, 480 h, MATCH, 20 DAT
Method in brief: as §3

[3] = solo flufenacet (SC 500 g/l) 31.25 gai/ha
[4] = solo flufenacet (SC 500 g/l) 62.5 gai/ha
[5] = solo flufenacet (SC 500 g/l) 125 gai/ha
[6] = solo flufenacet (SC 500 g/l) 250 gai/ha

CC(C)N(C(=O)COc1nnc(C(F)(F)F)s1)c1ccc(F)cc1 [flufenacet]
70%: inhibition at 31.25 g/ha (Poa annua) | inhibition at 250 g/ha (Ambrosia elatior [2]; flufenacet solo 250 gai/ha)
65%: inhibition at 62.5 g/ha (Avena fatua; flufenacet solo 62.5 gai/ha) | inhibition at 125 g/ha (Avena fatua; flufenacet solo 125 gai/ha, read-out: % activity) | inhibition at 125 g/ha (Bromus sterilis; flufenacet solo 125 gai/ha) | inhibition at 500000 µg/mL (stock) (Bromus sterilis; [5])
85%: inhibition at 125 g/ha (Lolium multiflorum; flufenacet solo 125 gai/ha) | inhibition at 250 g/ha (Lolium multiflorum; flufenacet solo 250 gai/ha)
50%: inhibition at 500000 µg/mL (stock) (Polygonum convolvulus; [6]) | inhibition at 62.5 g/ha (Lolium multiflorum; flufenacet solo 62.5 gai/ha) | inhibition at 500000 µg/mL (stock) (Matricaria chamomilla; [5])
30%: inhibition at 31.25 g/ha (Avena fatua; flufenacet solo 31.25 gai/ha, read-out: % activity) | inhibition at 62.5 g/ha (Polygonum convolvulus; flufenacet solo 62.5 gai/ha) | inhibition at 125 g/ha (Polygonum convolvulus; flufenacet solo 125 gai/ha) | inhibition at 500000 µg/mL (stock) (Polygonum convolvulus; [4]) | inhibition at 500000 µg/mL (stock) (Polygonum convolvulus; [5]) | inhibition at 125 g/ha (Ambrosia elatior [2]; flufenacet solo 125 gai/ha)
35%: inhibition at 250 g/ha (Brachiaria decumbens; flufenacet solo 250 gai/ha) | inhibition at 500000 µg/mL (stock) (Brachiaria decumbens; [6]) | inhibition at 62.5 g/ha (Setaria viridis; flufenacet solo 62.5 gai/ha) | inhibition at 500000 µg/mL (stock) (Setaria viridis; [4])
20%: inhibition at 31.25 g/ha (Lolium multiflorum; flufenacet solo 31.25 gai/ha)
0%: percent weed control (herbicidal activity, 0-100 scale) at 31.25 g/ha (Ambrosia elatior [1]; flufenacet SC 500 g/l solo 31.25 gai/ha) | percent weed control (herbicidal activity, 0-100 scale) at 62.5 g/ha (Ambrosia elatior [1]; flufenacet SC 500 g/l solo 62.5 gai/ha, read-out: % activity) | percent weed control (herbicidal activity, 0-100 scale) at 125 g/ha (Ambrosia elatior [1]; flufenacet SC 500 g/l solo 125 gai/ha, read-out: % activity) | inhibition at 31.25 g/ha (Polygonum convolvulus; flufenacet solo 31.25 gai/ha) | inhibition at 500000 µg/mL (stock) (Polygonum convolvulus; [3]) | inhibition at 31.25 g/ha (Brachiaria decumbens; flufenacet solo 31.25 gai/ha) | inhibition at 62.5 g/ha (Brachiaria decumbens; flufenacet solo 62.5 gai/ha) | inhibition at 125 g/ha (Brachiaria decumbens; flufenacet solo 125 gai/ha) | inhibition at 500000 µg/mL (stock) (Brachiaria decumbens; [3]) | inhibition at 500000 µg/mL (stock) (Brachiaria decumbens; [4]) | inhibition at 500000 µg/mL (stock) (Brachiaria decumbens; [5]) | inhibition at 62.5 g/ha (Ambrosia elatior [2]; flufenacet solo 62.5 gai/ha) | inhibition at 500000 µg/mL (stock) (Papaver rhoeas) | inhibition at 500000 µg/mL (stock) (Matricaria chamomilla; [3]) | inhibition at 500000 µg/mL (stock) (Matricaria chamomilla; [4])
80%: inhibition at 250 g/ha (Bromus sterilis; flufenacet solo 250 gai/ha) | inhibition at 500000 µg/mL (stock) (Bromus sterilis; [6])
55%: inhibition at 125 g/ha (Setaria viridis; flufenacet solo 125 gai/ha) | inhibition at 500000 µg/mL (stock) (Setaria viridis; [5])
